Literature values as cited in patent US20240197726A1, “NOVEL TETRAHYDROISOQUINOLINE ALKALOID COMPOUND CONTAINING MACROCYCLE” (THE UNIVERSITY OF TOKYO, priority 2021, published 2024).
Like-named read-outs stand apart in the source and are kept apart here.

What was measured:
Conditions in all cases: cited from earlier work
[1] = system: NCI-H23 lung cancer cells
[2] = system: HT-29 colorectal cancer cells
A549 lung cancer cells = system: A549 lung cancer cells
[3] = system: HCT-116 colorectal cancer cells
[4] = system: NCI-H460 lung cancer cells
[5] = system: MCF-7 breast cancer cells
[6] = system: MDA-MB-231 breast cancer cells
[7] = NCl-H23 lung cancer cells, comparative value based on the literature, read-out: antitumor activity GI50 value: 50% growth inhibitory concentration
[8] = HT-29 colorectal cancer cells, comparative value based on the literature, read-out: antitumor activity GI50 value: 50% growth inhibitory concentration
[9] = A549 lung cancer cells, comparative value based on the literature, read-out: antitumor activity GI50 value: 50% growth inhibitory concentration
[10] = HCT-116 colorectal cancer cells, comparative value based on the literature, read-out: antitumor activity GI50 value: 50% growth inhibitory concentration
[11] = NCl--H460 lung cancer cells, comparative value based on the literature, read-out: antitumor activity GI50 value: 50% growth inhibitory concentration
[12] = MCF-7 breast cancer cells, comparative value based on the literature, read-out: antitumor activity GI50 value: 50% growth inhibitory concentration
[13] = MDA-MB-231 breast cancer cells, comparative value based on the literature, read-out: antitumor activity GI50 value: 50% growth inhibitory concentration

SMILES | GI50 [1, 7] [nM] | GI50 [2, 8] [nM] | GI50 (A549 lung cancer cells; [9]) [nM] | GI50 [3, 10] [nM] | GI50 [4, 11] [nM] | GI50 [5, 12] [nM] | GI50 [6, 13] [nM] | GI50 ([1]; NCI-H23, reference values from literature (Leal et al. Br. J Pharmacol, 2010), read-out: GI50 value: 50% growth inhibitory concentration) [nM] | GI50 ([2]; HT-29, reference values from literature (Leal et al. Br. J Pharmacol, 2010), read-out: GI50 value: 50% growth inhibitory concentration) [nM] | GI50 (A549 lung cancer cells; A549, reference values from literature (Leal et al. Br. J Pharmacol, 2010), read-out: GI50 value: 50% growth inhibitory concentration) [nM] | GI50 ([3]; HCT-116, reference values from literature (Leal et al. Br. J Pharmacol, 2010), read-out: GI50 value: 50% growth inhibitory concentration) [nM] | GI50 ([4]; NCI-H460, reference values from literature (Leal et al. Br. J Pharmacol, 2010), read-out: GI50 value: 50% growth inhibitory concentration) [nM] | GI50 ([5]; MCF-7, reference values from literature (Leal et al. Br. J Pharmacol, 2010), read-out: GI50 value: 50% growth inhibitory concentration) [nM] | GI50 ([6]; MDA-MB-231, reference values from literature (Leal et al. Br. J Pharmacol, 2010), read-out: GI50 value: 50% growth inhibitory concentration) [nM]
COc1c(C)cc2c(c1C)[C@H]1N(C)[C@@](C)(C2)C(C)N2C1(C)[C@@H]1CCC3(CCCC4=C3Cc3ccc(C)cc34)C(=O)OC[C@@]2(C)c2c3c(c(C)c(C)c21)OCO3 (stereo partly drawn) [drawing 159] | 5.3 | 2.4 | 1.3 | 6.4 | 1.5 | 1.7 | 3.4 |  |  |  |  |  |  | 
COc1c(C)cc2c(c1C)[C@H]1N(C)[C@@](C)(C2)C(C)N2C1(C)[C@@H]1CCC3(NCCc4cc(C)c(C)cc43)C(=O)OC[C@@]2(C)c2c3c(c(C)c(C)c21)OCO3 (stereo partly drawn) | 2.1 | 9.8 | 10.4 | 4.9 | 1.8 | 2.6 | 3.9 |  |  |  |  |  |  | 
COc1cc2c(cc1O)CCN[C@]21CS[C@@H]2c3c(OC(C)=O)c(C)c4c(c3[C@H](COC1=O)N1[C@@H]2[C@H]2c3c(cc(C)c(OC)c3O)C[C@@H]([C@@H]1O)N2C)OCO4 [Ecteinascidin 743, reference compound] |  |  |  |  |  |  |  | 2.1 | 9.8 | 10.4 | 4.9 | 1.8 | 2.6 | 3.9
